In patent US20030083313A1, “Means of tumor therapy” (priority 1998, published 2003):

Tests used:
[1] = Alteration of body weight in the in vivo treatment test; details: 3366/Tam-bearing female NMRI nude mice, dose Tam/Lipid mg/kg/injection as per group, twice a day for 4 weeks
Procedure: (§1) Tam liposomes according to Example 4 are used for the in vivo treatment test. As a tumor model, breast cancer 3366/Tam is transplanted onto female NMRI nude mice and the treatment started when the tumor is palpable. The animals are given one dose of liposomes with 50 mg/kg Tam (and correspondingly 25 mg/kg OPP) twice a day for 4 weeks. As controls, liposomes containing no Tam are administered, in addition one group being treated with free Tam. The tumor growth in relation to the control group (physiological salt solution) is determined and portrayed as a percentage T/C, as shown in FIG. 1 and in Table 1. […] The living cells were determined with the MTT assay.

breast cancer 3366/Tam = assay: Therapeutic effectivity on tamoxifen-resistant breast cancer xenograft, tumor growth as T/C; assay type: in vivo; details: 3366/Tam tumor on female NMRI nude mice; dose Tam/Lipid mg/kg/injection as per group (50/0, 50/25, 0/25), twice a day for 4 weeks
Procedure: as §1

- Alteration of body weight % (day 29/51) [1]: −5%
SMILES: CC/C(=C(\c1ccccc1)c1ccc(OCCN(C)C)cc1)c1ccccc1 [tamoxifen]
- T/C (tumor growth in relation to the control group, physiological salt solution) (breast cancer 3366/Tam): 91%
